In patent US20160137639A1, “TRIAZOLE-ISOXAZOLE COMPOUND AND MEDICAL USE THEREOF” (JAPAN TOBACCO INC., priority 2012, published 2016):
Read-outs that look alike come from different tables or passages of the source.

Assays:
mouse RORγ = molecular target: T1, mouse RORγ (Mus musculus, UniProt P51450); test: Luciferase reporter gene assay of inhibitory effect against RORγ transcriptional activity (GAL4-mRORγ plasmid in CHO cells); format: cell-based
T1 construct: mouse, NM_011281.2 and from Ile251 to Lys516; expressed in transfected cells; host or cells: CHO cells (transient co-transfection with pG5-Luc reporter)
T1 sequence (P51450 251-516): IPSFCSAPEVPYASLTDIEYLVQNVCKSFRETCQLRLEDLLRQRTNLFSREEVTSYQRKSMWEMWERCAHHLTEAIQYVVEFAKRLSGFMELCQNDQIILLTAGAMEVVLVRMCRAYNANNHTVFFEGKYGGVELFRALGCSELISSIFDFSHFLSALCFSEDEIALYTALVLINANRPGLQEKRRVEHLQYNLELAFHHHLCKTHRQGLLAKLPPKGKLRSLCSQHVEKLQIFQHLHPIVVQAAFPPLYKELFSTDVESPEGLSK
Method in brief: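 CHO cells transiently co-transfected with GAL4-mouse RORγ LBD (Ile251–Lys516) and GAL4-dependent luciferase reporter; eight compound concentrations, 0.1% DMSO, 2 days at 37 °C. Luminescence as %-of-vehicle control; EC50 by curve fit, cytotoxic concentrations excluded.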

human RORγ = molecular target: T2, human RORγ (Homo sapiens, UniProt P51449); test: Luciferase reporter gene assay of inhibitory effect against RORγ transcriptional activity (GAL4-hRORγ plasmid in CHO cells); format: cell-based
T2 construct: human, NM_005060.3 and from Ser253 to Lys518; expressed in transfected cells; host or cells: CHO cells (transient co-transfection with pG5-Luc reporter)
T2 sequence (P51449 253-518): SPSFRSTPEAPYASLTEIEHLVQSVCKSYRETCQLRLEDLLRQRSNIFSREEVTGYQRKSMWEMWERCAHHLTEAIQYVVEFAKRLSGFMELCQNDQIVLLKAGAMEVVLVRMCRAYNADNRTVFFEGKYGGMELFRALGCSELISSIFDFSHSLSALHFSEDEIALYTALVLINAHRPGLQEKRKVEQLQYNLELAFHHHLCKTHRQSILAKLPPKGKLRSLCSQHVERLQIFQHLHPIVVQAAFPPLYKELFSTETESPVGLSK

SMILES	EC50 (mouse RORγ; read-out: LUC EC50 mRORg)	EC50 (human RORγ; read-out: LUC EC50 hRORg)	EC50 (mouse RORγ; read-out: LUC EC50 (μM) mRORg)	EC50 (human RORγ; read-out: LUC EC50 (μM) hRORg)
Cc1ccc(NC(=O)[C@@H]2CC(C)(O)C[C@H]2c2nnc([C@H]3C[C@@H](CC(C)C)C3)n2C2CC2)c(C)c1 (single isomer, unassigned) [Example F-563]	< 3 µM	< 3 µM	–	–
Cc1ccc(CNC(=O)CCc2nnc(CCC(C)C)n2C2CC2)cc1 [Example F-61]	–	–	> 3 µM	> 3 µM
COC1CCC(CCc2nnc(CCC(=O)Nc3cccc(Cl)c3C)n2C2CC2)CC1 (centres unmarked) [Example F-242]	–	–	< 3 µM	> 3 µM
Cc1cccc(O)c1NC(=O)CCc1nnc(CCC(C)C)n1C1CC1 [Example F-104]	–	–	> 3 µM	> 3 µM
Cc1ccc(NC(=O)CC(Cc2ccccn2)c2nnc([C@H]3C[C@@H](CC(C)C)C3)n2C2CC2)c(C)c1 (mixture of isomers) [Example F-422]	–	–	< 3 µM	< 3 µM
Cc1ccc(NC(=O)[C@H]2CN(c3nc(C)cs3)C[C@@H]2c2nnc(CCCC(C)(C)C)n2C2CC2)c(C)c1 (racemic) [Example F-448]	–	–	< 3 µM	< 3 µM
CNC(=O)CCC(CC(=O)Nc1ccc(C)cc1C)c1nnc(CCCC(C)C)n1C1CC1 (racemic) [Example F-285]	–	–	< 3 µM	> 3 µM
Cc1ccc(NC(=O)CCc2nnc(-c3ccc(CC(C)C)cc3)n2C2CC2)c(C)c1 [Example F-404]	–	–	< 3 µM	< 3 µM
Cc1ccc(NC(=O)[C@H]2CC(CO)C[C@@H]2c2nnc([C@H]3C[C@@H](CC(C)C)C3)n2C2CC2)c(C)c1 (single isomer, unassigned) [Example F-512]	< 3 µM	< 3 µM	–	–
CC(C)CCc1nnc(CCC(=O)Nc2cc(F)cc(Cl)c2)n1C1CC1 [Example F-109]	–	–	> 3 µM	> 3 µM
CC(=O)N1C[C@H](C(=O)Nc2ccc(C)cc2C)[C@@H](c2nnc(-c3cnn(C(C)C)c3)n2C2CC2)C1 (racemic) [Example F-368]	–	–	> 3 µM	> 3 µM
CC(C)CCc1nnc(CCC(=O)Nc2ccccc2C(C)C)n1C1CC1 [Example F-75]	–	–	> 3 µM	> 3 µM
Cc1c(Cl)cccc1NC(=O)CCc1nnc(CCN2CCCCC2)n1C1CC1 [Example F-169]	–	–	> 3 µM	> 3 µM
Cc1ccc(NC(=O)C[C@H](CC#N)c2noc([C@H]3C[C@@H](CC(C)C)C3)c2C2CC2)c(C)c1 [Example F-638]	< 3 µM	< 3 µM	–	–
CCC[C@@H](CC(=O)Nc1ccc(C)cc1C)c1nnc(CCCC(C)(C)C)n1C1CC1 [Example F-528]	< 3 µM	< 3 µM	–	–
Cc1ccc(Cl)cc1NC(=O)CCc1nnc(CCC(C)C)n1C1CC1 [Example F-131]	–	–	> 3 µM	> 3 µM
CC(C)CCc1nnc(CCC(=O)NCc2cccc3[nH]cnc23)n1C1CC1 [Example F-115]	–	–	> 3 µM	> 3 µM
Cc1cccc(C)c1NC(=O)CCc1nnc(CCC(C)C)n1C1CC1 [Example F-70]	–	–	> 3 µM	> 3 µM
CC(=O)N1C[C@H](C(=O)Nc2ccc(C)cc2C)[C@@H](c2nnc([C@H]3C[C@H](OC(C)C)C3)n2C2CC2)C1 [Example F-334]	–	–	< 3 µM	< 3 µM
CC(=O)N1C[C@H](C(=O)Nc2ccc(C)cc2C)[C@@H](c2nnc(CCOC(C)(C)C(F)(F)F)n2C2CC2)C1 (racemic) [Example F-325]	–	–	< 3 µM	< 3 µM
Cc1ccc(NC(=O)[C@@H]2C[C@H](O)C[C@H]2c2nnc([C@H]3C[C@@H](CC(C)C)C3)n2C2CC2)c(C)c1 [Example F-471]	–	–	> 3 µM	> 3 µM
Cc1ncc(NC(=O)C[C@H](CCC(=O)O)c2noc([C@H]3C[C@@H](CC(C)(C)C)C3)c2C2CC2)c(C)n1 [Example F-674]	< 3 µM	< 3 µM	–	–
Cc1ccc(NC(=O)[C@H]2C[C@@H](O)C[C@@H]2c2nnc([C@H]3C[C@@H](CC(C)C)C3)n2C2CC2)c(C)c1 (racemic) [Example F-431]	–	–	< 3 µM	< 3 µM
Cc1ccc(NC(=O)[C@H]2CC(C)(O)C[C@@H]2c2nnc([C@H]3C[C@@H](CC(C)C)C3)n2C2CC2)c(C)c1 (single isomer, unassigned) [Example F-565]	< 3 µM	< 3 µM	–	–
Cc1cc(Cl)ccc1NC(=O)C[C@H](CC(C)C)c1nnc(-c2cc(CCC(C)C)on2)n1C1CC1 [Example F-628]	< 3 µM	< 3 µM	–	–
